We go through 27 molecules from patent publication US11180474B2 (BRISTOL-MYERS SQUIBB COMPANY, priority 2016, dated 2021).

The target of the assay is T1, human TLR8 (Homo sapiens, UniProt Q9NR97).
T1 construct: host or cells: HEK-Blue cells
T1 sequence (Q9NR97 27-1041): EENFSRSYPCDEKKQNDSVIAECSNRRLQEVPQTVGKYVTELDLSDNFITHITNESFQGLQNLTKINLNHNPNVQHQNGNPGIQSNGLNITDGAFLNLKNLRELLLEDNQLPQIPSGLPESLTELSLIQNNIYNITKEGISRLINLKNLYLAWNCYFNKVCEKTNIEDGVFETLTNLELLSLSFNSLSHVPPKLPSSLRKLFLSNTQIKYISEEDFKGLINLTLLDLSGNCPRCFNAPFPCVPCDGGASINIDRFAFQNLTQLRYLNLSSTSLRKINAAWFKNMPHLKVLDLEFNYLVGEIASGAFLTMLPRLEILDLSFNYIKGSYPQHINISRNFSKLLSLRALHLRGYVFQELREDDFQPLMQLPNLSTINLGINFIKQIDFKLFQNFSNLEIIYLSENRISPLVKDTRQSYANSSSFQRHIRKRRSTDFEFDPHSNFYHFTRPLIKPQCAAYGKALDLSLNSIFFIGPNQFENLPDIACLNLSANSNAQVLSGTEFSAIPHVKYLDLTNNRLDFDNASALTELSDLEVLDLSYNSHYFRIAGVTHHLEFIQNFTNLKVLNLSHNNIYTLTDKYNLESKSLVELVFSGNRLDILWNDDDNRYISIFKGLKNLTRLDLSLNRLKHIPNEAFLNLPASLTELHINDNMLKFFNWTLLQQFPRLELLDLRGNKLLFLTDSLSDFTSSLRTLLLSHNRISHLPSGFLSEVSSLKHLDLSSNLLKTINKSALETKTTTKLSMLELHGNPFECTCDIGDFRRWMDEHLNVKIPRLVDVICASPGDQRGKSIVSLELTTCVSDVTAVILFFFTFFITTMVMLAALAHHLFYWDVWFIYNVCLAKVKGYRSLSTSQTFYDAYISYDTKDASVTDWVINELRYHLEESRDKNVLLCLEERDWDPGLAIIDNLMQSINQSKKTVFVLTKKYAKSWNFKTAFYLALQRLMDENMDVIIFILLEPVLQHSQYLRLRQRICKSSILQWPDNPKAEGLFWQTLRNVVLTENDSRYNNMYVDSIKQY
Nature of the assay: TLR8 inhibition reporter assay (HEK-Blue cells, SEAP reporter, R848 stimulation). It is filed as cell-based. As to conditions: HEK-Blue cells overexpressing human TLR8, R848 15.9 μM. In short, it runs like this:
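22 h, 37° C, 5% CO2 incubation; compounds 0.05 nM-50 μM final; TLR7 cells 15000/well, TLR8 20,000/well. Readout: SEAP via HEK-Blue Detection medium. % inhibition = signal reduction versus agonist + DMSO wells, referenced to known inhibitor.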
As for `COc1ccc(-c2[nH]c3ccc(C4CCN(C5CCN(C6CCC(C)CC6)CC5)CC4)cc3c2C)cc1OC` (stereo not drawn) [Example 80, 2-(3,4-dimethoxyphenyl)-3-methyl-5-(1′-(4-methylcyclohexyl)-[1,4′-bipiperidin]-4-yl)-1H-indole], it took 284 nM to reach half-maximal inhibition (IC50). This counts as sub-micromolar. Molecule `COc1ccc(-c2[nH]c3ccc(C4CCN(C5CCN(Cc6cncn6C)CC5)CC4)cc3c2C)cc1OC` [Example 59, 2-(3,4-dimethoxyphenyl)-3-methyl-5-(1′-((1-methyl-1H-imidazol-5-yl)methyl)-[1,4′-bipiperidin]-4-yl)-1H-indole] showed an IC50 of 187 nM. On to `COc1ccc(-c2[nH]c3ccc(C4CCN(C5CCCN(CC(C)C)CC5)CC4)cc3c2C)cc1OC` (stereo not drawn) [Example 95, 2-(3,4-dimethoxyphenyl)-5-(1-(1-isobutylazepan-4-yl)piperidin-4-yl)-3-methyl-1H-indole], for which the concentration for half-maximal inhibition (IC50) amounted to 195 nM. Then `COc1ccc(-c2[nH]c3ccc(C4CCN(C5CCN(C6CCCCC6)CC5)CC4)cc3c2C)cc1OC` [Example 68, 5-(1′-cyclohexyl-[1,4′-bipiperidin]-4-yl)-2-(3,4-dimethoxyphenyl)-3-methyl-1H-indole], with 182 nM; and `COc1ccc(-c2[nH]c3ccc(C4CCN(C5CCN(Cc6ccco6)CC5)CC4)cc3c2C)cc1OC` [Example 76, 2-(3,4-dimethoxyphenyl)-5-(1′-(furan-2-ylmethyl)-[1,4′-bipiperidin]-4-yl)-3-methyl-1H-indole], with 238 nM. As for `COc1ccc(-c2[nH]c3ccc(C4CCN(C5CCCN(CC6CC6)CC5)CC4)cc3c2C)cc1OC` (stereo not drawn) [Example 94, 5-(1-(1-(cyclopropylmethyl)azepan-4-yl)piperidin-4-yl)-2-(3,4-dimethoxyphenyl)-3-methyl-1H-indole], the figure is 281 nM. In the case of `COc1ccc(-c2[nH]c3ccc(C4CCN(CC5CCCCN5C)CC4)cc3c2C)cc1OC` (stereo not drawn) [Example 49, 2-(3,4-dimethoxyphenyl)-3-methyl-5-(1-((1-methylpiperidin-2-yl)methyl)piperidin-4-yl)-1H-indole], the midpoint of inhibition, the IC50, lay at 260 nM.

In turn, `CCCCCN1CCC(N2CCC(c3ccc4[nH]c(-c5ccc(OC)c(OC)c5)c(C)c4c3)CC2)CC1` [Example 55, 2-(3,4-dimethoxyphenyl)-3-methyl-5-(1′-pentyl-[1,4′-bipiperidin]-4-yl)-1H-indole] gave an IC50 of 293 nM. In turn, `COc1ccc(-c2[nH]c3ccc(C4CCN(C(C)CO)CC4)cc3c2C)cc1OC` (stereo not drawn) [Example 43, 2-(4-(2-(3,4-dimethoxyphenyl)-3-methyl-1H-indol-5-yl)piperidin-1-yl)propan-1-ol] gave an IC50 of 926 nM. Then `COc1ccc(-c2[nH]c3ccc(C4CCN(C(=O)CN5CCCC(C(=O)N(C)C)C5)CC4)cc3c2CC(F)(F)F)cc1OC` (stereo not drawn) [Example 419, 1-(2-(4-(2-(3,4-dimethoxyphenyl)-3-(2,2,2-trifluoroethyl)-1H-indol-5-yl)piperidin-1-yl)-2-oxoethyl)-N,N-dimethylpiperidine-3-carboxamide], with 47 nM; and `CCN(CC)C(=O)C1CCCN(CC(=O)N2CCC(c3ccc4[nH]c(-c5ccc(OC)c(OC)c5)c(CC(F)(F)F)c4c3)CC2)C1` (stereo not drawn) [Example 420, 1-(2-(4-(2-(3,4-dimethoxyphenyl)-3-(2,2,2-trifluoroethyl)-1H-indol-5-yl)piperidin-1-yl)-2-oxoethyl)-N,N-diethylpiperidine-3-carboxamide], with 25 nM; and `COc1ccc(-c2[nH]c3ccc(C4CCN(C(=O)CN(C)CCO)CC4)cc3c2C)cc1OC` [Example 408, 1-(4-(2-(3,4-dimethoxyphenyl)-3-methyl-1H-indol-5-yl)piperidin-1-yl)-2-((2-hydroxyethyl)(methyl)amino)ethan-1-one], with 4770 nM. As for `COc1ccc(-c2[nH]c3ccc(C4CCN(C5CCN(CC(C)(C)CO)CC5)CC4)cc3c2C)cc1OC` [Example 69, 3-(4-(2-(3,4-dimethoxyphenyl)-3-methyl-1H-indol-5-yl)-[1,4′-bipiperidin]-1′-yl)-2,2-dimethylpropan-1-ol], the IC50 was found to be 317 nM. Compared with the last molecule, the IC50 is about 15-fold lower. `COc1ccc(-c2[nH]c3ccc(C4CCN(C5CCN(CC6CC6)CC5)CC4)cc3c2C)cc1OC` [Example 3, 5-(1′-(cyclopropylmethyl)-[1,4′-bipiperidin]-4-yl)-2-(3,4-dimethoxyphenyl)-3-methyl-1H-indole] registered a half-maximal inhibitory concentration (IC50) of 216 nM. `COc1ccc(-c2[nH]c3ccc(C4CCN(C5CCN(Cc6nccs6)CC5)CC4)cc3c2C)cc1OC` [Example 72, 2-((4-(2-(3,4-dimethoxyphenyl)-3-methyl-1H-indol-5-yl)-[1,4′-bipiperidin]-1′-yl)methyl)thiazole] registered a concentration for half-maximal inhibition (IC50) of 312 nM. `COc1ccc(-c2[nH]c3ccc(C4CCN(C5CCN(CC6CCCC6)CC5)CC4)cc3c2C)cc1OC` [Example 65, 5-(1′-(cyclopentylmethyl)-[1,4′-bipiperidin]-4-yl)-2-(3,4-dimethoxyphenyl)-3-methyl-1H-indole] showed an IC50 of 41400 nM. As for `COc1ccc(-c2[nH]c3ccc(C4CCN(C5CCCN(C)CC5)CC4)cc3c2C)cc1OC` (stereo not drawn) [Example 91, 2-(3,4-dimethoxyphenyl)-3-methyl-5-(1-(1-methylazepan-4-yl)piperidin-4-yl)-1H-indole], the figure is 352 nM; as for `COc1ccc(-c2[nH]c3ccc(C4CCN(C(=O)CN5CCCN(C)CC5)CC4)cc3c2C)cc1OC` [Example 410, 1-(4-(2-(3,4-dimethoxyphenyl)-3-methyl-1H-indol-5-yl)piperidin-1-yl)-2-(4-methyl-1,4-diazepan-1-yl)ethan-1-one], 21100 nM. Then `COc1ccc(-c2[nH]c3ccc(C4CCN(C5CCN(C(C)C)CC5)CC4)cc3c2CC(F)(F)F)cc1OC` [Example 412, 2-(3,4-dimethoxyphenyl)-5-(1′-isopropyl-[1,4′-bipiperidin]-4-yl)-3-(2,2,2-trifluoroethyl)-1H-indole], with 21 nM. As for `CCN1CCC(N2CCC(c3ccc4[nH]c(-c5ccc(OC)c(OC)c5)c(C)c4c3)CC2)CC1` [Example 44, 2-(3,4-dimethoxyphenyl)-5-(1′-ethyl-[1,4′-bipiperidin]-4-yl)-3-methyl-1H-indole], the figure is 926 nM; as for `COc1ccc(-c2[nH]c3ccc(C4CCN(C5CCN(Cc6cccn6C)CC5)CC4)cc3c2C)cc1OC` [Example 78, 2-(3,4-dimethoxyphenyl)-3-methyl-5-(1′-((1-methyl-1H-pyrrol-2-yl)methyl)-[1,4′-bipiperidin]-4-yl)-1H-indole], 143 nM. `C#CCCCCC(=O)NCCN1CCC(c2ccc3[nH]c(-c4ccc(OC)c(OC)c4)c(C(C)C)c3c2)CC1` [Example 411, N-(2-(4-(2-(3,4-dimethoxyphenyl)-3-isopropyl-1H-indol-5-yl)piperidin-1-yl)ethyl)hept-6-ynamide] came in with an IC50 of 36 nM.

With `COc1ccc(-c2[nH]c3ccc(C4CCN(C(=O)CN5CCC(N(C)C)CC5)CC4)cc3c2C)cc1OC` [Example 407, 1-(4-(2-(3,4-dimethoxyphenyl)-3-methyl-1H-indol-5-yl)piperidin-1-yl)-2-(4-(dimethylamino)piperidin-1-yl)ethan-1-one], the concentration for half-maximal inhibition (IC50) was at least 50000 nM. As for `CCN(CC)C(=O)C1CCCN(CC(=O)N2CCC(c3ccc4[nH]c(-c5ccc(OC)c(OC)c5)c(CC(F)(F)F)c4c3)CC2)C1` (stereo not drawn) [Example 418, 1-(2-(4-(2-(3,4-dimethoxyphenyl)-3-(2,2,2-trifluoroethyl)-1H-indol-5-yl)piperidin-1-yl)-2-oxoethyl)-N,N-diethylpiperidine-3-carboxamide], the figure is 77 nM; as for `CNCC(=O)N1CCC(c2ccc3[nH]c(-c4ccc(OC)c(OC)c4)c(CC(F)(F)F)c3c2)CC1` [Example 414, 1-(4-(2-(3,4-dimethoxyphenyl)-3-(2,2,2-trifluoroethyl)-1H-indol-5-yl)piperidin-1-yl)-2-(methylamino)ethanone], 86 nM. Then `COc1ccc(-c2[nH]c3ccc(C4CCN(C5CCN(CC(C)(C)C)CC5)CC4)cc3c2C)cc1OC` [Example 75, 2-(3,4-dimethoxyphenyl)-3-methyl-5-(1′-neopentyl-[1,4′-bipiperidin]-4-yl)-1H-indole], with 325 nM; and `COc1ccc(-c2[nH]c3ccc(C4CCN(C5CCN(CC(O)CO)CC5)CC4)cc3c2C)cc1OC` (stereo not drawn) [Example 52, 3-(4-(2-(3,4-dimethoxyphenyl)-3-methyl-1H-indol-5-yl)-[1,4′-bipiperidin]-1′-yl)propane-1,2-diol], with 333 nM.
